This is an account of results in US10196604B2, “Mitochondrial inhibitors for use in culturing pluripotent stem cells” (The Board of Trustees of the Leland Stanford Junior …, priority 2014, dated 2019).

Series [1] concerns OCT4. In words: qRT-PCR gene expression in hES cells: OCT4. Format: cell-based, human. The conditions noted are these: 72 hours. As to the method: (§1) Total cellular RNA was extracted from cells using TRIzol (Invitrogen) and DNase treated with the DNA-free kit (Ambion, Austin, Tex., http (colon slash slash) www (dot) ambion.com) following manufacturer's directions for stringent conditions. RNA was dialyzed for 30 minutes against milliqwater, 10 mM Tris and 1 mM EDTA adjusted to pH 7.5 with HCL (all from Fisher). cDNA was synthesized using GeneAmp RNA PCR kit from Applied Biosciences (Fisher) and no-RT reactions were performed without reverse transcriptase and RNase inhibitor enzymes. One microgram of RNA was used, following manufacturer's directions. Quantitative real time polymerase chain reaction (qPCR) was performed to determine relative mRNA expression levels. Expression fold changes were calculated using the ΔΔCt method and normalized using the housekeeping gene, β-ACTIN as an internal control. Taqman master mix and gene assays with water only were used as a negative control. mRNA expression assays were analyzed in a triplicate PCR reaction with no-RT negative controls and each experiment was performed at least three independent times. Primers for OCT4 and NANOG were selected from predeveloped Applied Biosystems TaqMan Assays, which are pre-designed qPCR primers and TaqMan MGB probes; Oct-4 (Hs01895061_u1) and Nanog (Hs02387400_g1) were selected. Primers for SURVIVIN were: […]
(§2) Based on the toxicity results, nine of the above twelve compounds in Example 1 were selected for further screening to assess their effects on the expression of OCT4, NANOG and SURVIVIN in human embryonic stem cells. The results are summarized in Table 2, along with the mitochondrial inhibition activities for these compounds which were disclosed in US20110301180A1 to Collman et al. the content of which has been incorporated herein by reference.
(§3) The pluripotency of these cultured human embryonic stem cells were characterized by the marker gene expression as analyzed by Quantitative Reverse Transcriptase PCR (qRT-PCR). All compounds were tested at 1 mM concentration for 72 hours except for compound 1 which was tested at 10 μM. The reversibility of mitochondrial inhibition is presented in the right column.
Background: Quantitative PCR measures a nucleic acid by following its amplification.

In series [2] the test system is mitochondrial respiration. The conditions noted are these: cited from earlier work; for Inhibition/Reversibility in mitochondrial inhibition: disclosed in US20110301180A1; for mitochondrial inhibition IC50: values from US 20110301180.
In series [3] the test system is SURVIVIN, OCT4 and NANOG. Put plainly: qRT-PCR of the three probed genes together (SURVIVIN, OCT4, NANOG) in hES cells. The conditions noted are these: 72 hours. Format: cell-based, human. As to the method: as §1, §2, §3
Series [4] deals with human embryonic stem cells. In words: Toxicity testing of mitochondrial inhibitors on hES cells (72 hr culture, crystal violet staining). The conditions noted are these: for nontoxic concentration (no toxicity up to): tested from 0.1 mM to 50 mM.
Protocol: Human ES cells, WA09 (WiCell Research Institute, Madison, Wis.) were cultured on dishes coated for at least two hours with Matrigel (BD Biosciences, Franklin Lakes, N.J.). hES cell media containing 80% knockout Dulbecco's modified eagle medium (DMEM), 20% knockout serum replacer, 1% nonessential amino acids, 1% penicillin/streptomycin (100 U per 100 μg/ml), 2 mM L-glutamine, (all from Invitrogen, Carlsbad, Calif.) and 4 ng/ml basic fibroblast growth factor (bFGF, ReproCELL, San Jose, Calif.) was pre-conditioned by culture with inactivated mouse embryonic fibroblasts (MEF; Millipore, Billerica, Mass.) and collected every two days. hES cell lines were cultured with human conditioned media (HuCM) supplemented with 4 ng/ml bFGF and a heterocyclic compound of a certain concentration. hES cells were maintained by weekly manual passaging or bulk passaging using 1 mg/ml Collagenase IV (Invitrogen). hES cells were plated for experiments using Accutase (Fisher, Pittsburgh, Pa.) and plated at a density of 26,000 cells/cm^2.
Toxicity Testing hES cells were plated as above and subjected to increasing concentrations of the mitochondrial inhibitors for 72 hr of culture. After 72 hr the cells were fixed in 2.0% formaldehyde and stained for 30 min with 0.05% crystal violet in distilled water. Stained cells were rinsed twice with distilled water and imaged using bright field microscopy.
These compounds were initially tested at concentrations from 0.1 mM to 50 mM.
Series [5] has as its system SURVIVIN
In words: qRT-PCR gene expression in hES cells: SURVIVIN
The conditions noted are these: Homo sapiens, 72 hours, normalized to β-ACTIN, read-out: Expression relative to control, SURVIVIN; for fold induction at 1000 µM: 1 mM. Format: cell-based. The protocol: as §1, §2, §3

The test system of series [6] is NANOG. Put plainly: qRT-PCR gene expression in hES cells: NANOG. Format: cell-based. The conditions noted are these: Homo sapiens, 72 hours, normalized to β-ACTIN, read-out: Expression relative to control, NANOG; for fold induction at 1000 µM: 1 mM. As to the method:
as §1, §2, §3

Series [7] deals with NANOG. The conditions noted are these: human embryonic stem cells; cited from earlier work.
Series [8] can be described thus: Solubility in the culture media. The conditions noted are these: hES cell culture media. Format: physicochemical. The source says: Compound 2 was not soluble in the culture media and was not tested further.
The mark [9] stands for this setting: Homo sapiens, 1 mM, normalized to β-ACTIN, read-out: Expression relative to control, OCT4.

In the case of `Cc1ncsc1CCOC(=O)C[P+](c1ccccc1)(c1ccccc1)c1ccccc1.[Br-]` [Compound 1, [2-[2-(4-methylthiazol-5-yl)ethoxy]-2-oxo-ethyl]-triphenyl-phosphonium bromide], the fold induction at 10 µM in series [1] (Homo sapiens, 10 μM, normalized to β-ACTIN, read-out: Expression relative to control, OCT4) was found to be 0.9. Further, in series [2], the “Inhibition/Reversibility in mitochondrial inhibition” value (from here on “Inhibition/Reversibility”) is “No” and the “mitochondrial inhibition IC50” value is 8.8 mg/mL. For the same molecule, in series [3] (10 μM), the “One of the genes overexpressed by at least 10%” value (“One … at least 10%” below) is “No”; the “change in expression of SURVIVIN, OCT4 and NANOG following treatment (FIG. 2)” value (“change in expression of SURVIVIN” below) is given as “decreased expression of all three genes”. In addition, in series [4] (initial range 0.1 mM to 50 mM), the “toxicity at the initially tested concentrations” value was “toxic at all concentrations tested initially”. Besides, the “nontoxic / well tolerated concentration (up to)” value in series [4] (retested at 0.1 to 100 μM) is reported as “up to 10 μM”. Moreover, in series [5] (10 μM), the fold induction at 10 µM turned out to be 0.892. Moreover, in series [6] (10 μM), the fold induction at 10 µM was determined as 0.902.

Take `CCCCCC[C@H]1C(=O)O[C@H](C)[C@H](NC(=O)c2cccc(NC=O)c2O)C(=O)O[C@@H](C)[C@@H]1OC(=O)CC(C)C` [Antimycin A, [(2R,3S,6S,7R,8R)-3-[(3-formamido-2-hydroxybenzoyl)amino]-8-hexyl-2,6-dimethyl-4,9-dioxo-1,5-dioxonan-7-yl] 3-methylbutanoate]: the “effect on expression of pluripotency factor NANOG” value in series [7] is “increase in the expression of pluripotency factor NANOG”.

Regarding `c1ccc(CSc2nnn[nH]2)cc1` [Compound 2, 5-benzylsulfanyl-1H-tetrazole], the “solubility in the culture media” value in series [8] was “not soluble”.

Regarding `Cn1c(-c2ccccc2)cnc1S` [Compound 5, 3-methyl-4-phenyl-1H-imidazole-2-thione], the fold induction at 1000 µM in series [1] (setting [9]) was found to be 1.5; in series [5], 1.44; in series [6], 1.16. Also, the “mitochondrial inhibition IC50” value in series [2] is 5.4 mg/mL. Also, the “One … at least 10%” value in series [3] (1 mM) is “Yes”. In addition, the “change in expression of SURVIVIN” value in series [3] (1 mM) is listed as “increased expression of all three genes”. Also, the “nontoxic concentration (no toxicity up to)” value in series [4] is recorded as “at least 5 mM”.

`Cc1nnn[nH]1` [Compound 10, 5-methyl-1H-tetrazole]: the values for the fold induction at 1000 µM in series [1] (setting [9]), in series [5] and in series [6] were 0.977, 0.981 and 0.778, respectively. In series [3] (1 mM), the “One … at least 10%” value was “No”. In addition, the “change in expression of SURVIVIN” value in series [3] (1 mM) is “decreased expression of all three genes”.

Consider `Nc1nnn[nH]1` [Compound 7, 1H-tetrazol-5-amine], for which, in series [1] (1 mM, vs control), the OCT4 overexpression entry was “at least 50%”. The fold induction at 1000 µM in series [1] (setting [9]) was 1.53. In series [2], the “Inhibition/Reversibility” value was “reversible mitochondrial inhibitors and Yes”; the “mitochondrial inhibition IC50” value was 8.5 mg/mL. In addition, in series [3] (1 mM), the “One … at least 10%” value is recorded as “Yes”; the “change in expression of SURVIVIN” value is “increased expression of SURVIVIN and OCT4 but not NANOG”. In addition, the fold induction at 1000 µM in series [5] was determined as 1.73. Moreover, in series [6], the fold induction at 1000 µM stood at 0.917.

Consider `O=C(O)CCCC[C@H]1CCSS1` (single isomer, unassigned) [Compound 3, 5-[(3R or 3S)-dithiolan-3-yl]pentanoic acid], for which the values for the fold induction at 1000 µM in series [1] (setting [9]), in series [5] and in series [6] were 1.85, 1.11 and 0.717, respectively. Besides, the “mitochondrial inhibition IC50” value in series [2] was 37.1 mg/mL. The “One … at least 10%” value in series [3] (1 mM) is “Yes”. Besides, in series [3] (1 mM), the “change in expression of SURVIVIN” value is “increased expression of SURVIVIN and OCT4 but not NANOG”.

`O=C(O)Cc1nnn[nH]1` [Compound 11, 2-(1H-tetrazol-5-yl)acetic acid]: the figures for the fold induction at 1000 µM in series [1] (setting [9]), in series [5] and in series [6] were 1.07, 0.975 and 0.849, respectively. Also, the “One … at least 10%” value in series [3] (1 mM) is “No”. Moreover, the “change in expression of SURVIVIN” value in series [3] (1 mM) was “increase in OCT4 and no other genes”.

`CSc1nnn[nH]1` [Compound 12, 5-methylsulfanyl-1H-tetrazole]: in series [1] (setting [9]), the fold induction at 1000 µM is 1.16. Besides, in series [2], the “Inhibition/Reversibility” value was “reversible mitochondrial inhibitors and Yes”; the “mitochondrial inhibition IC50” value is 14.5 mg/mL. For the same molecule, in series [3] (1 mM), the “One … at least 10%” value is “Yes”; the “change in expression of SURVIVIN” value was “increased expression of SURVIVIN and OCT4 but not NANOG”. Moreover, the fold induction at 1000 µM in series [5] amounted to 1.05. Also, the fold induction at 1000 µM in series [6] stood at 0.844.

Take `Cc1cncs1` [Compound 4, 5-methylthiazole]: the fold induction at 1000 µM in series [1] (setting [9]) was found to be 1.13. Besides, in series [2], the “Inhibition/Reversibility” value is “reversible mitochondrial inhibitors and Yes”; the “mitochondrial inhibition IC50” value is 23.5 mg/mL. In series [3] (1 mM), the “One … at least 10%” value was “Yes”; the “change in expression of SURVIVIN” value was “increased expression of all three genes”. Further, the “nontoxic concentration (no toxicity up to)” value in series [4] was ≤ 10 mM. Further, the fold induction at 1000 µM in series [5] was found to be 1.27. The fold induction at 1000 µM in series [6] is 1.14.

As to `Brc1nn[nH]c1Br` [Compound 9, 4,5-dibromo-1H-triazole], in series [4] (1 mM), the “toxicity at 1 mM” value was “minimal toxicity”. Also, the “nontoxic concentration (no toxicity up to)” value in series [4] was “up to 0.1 mM”.

With `CCOC(=O)Cc1nnn[nH]1` [Compound 6, ethyl 2-(1H-tetrazol-5-yl)acetate], the fold induction at 1000 µM is 1.34 in series [1] (setting [9]), 1.75 in series [5] and 0.867 in series [6]. Besides, in series [2], the “mitochondrial inhibition IC50” value was 100 mg/mL. Further, the “One … at least 10%” value in series [3] (1 mM) is “Yes”. In addition, the “change in expression of SURVIVIN” value in series [3] (1 mM) is “increased expression of SURVIVIN and OCT4 but not NANOG”.
